# Results published in patent publication US20240369485A1, “FLUORESCENT SENSOR FOR MONITORING CALCIUM DYNAMICS” (priority 2021, published 2024).
# Entries after “also recorded” stand apart in the source; their conditions may differ.
# T1: CaSR (wildtype) (Homo sapiens, UniProt P41180)
# T1 construct: expressed in transfected cells; host or cells: HEK293
# T1 sequence (P41180 20-1078): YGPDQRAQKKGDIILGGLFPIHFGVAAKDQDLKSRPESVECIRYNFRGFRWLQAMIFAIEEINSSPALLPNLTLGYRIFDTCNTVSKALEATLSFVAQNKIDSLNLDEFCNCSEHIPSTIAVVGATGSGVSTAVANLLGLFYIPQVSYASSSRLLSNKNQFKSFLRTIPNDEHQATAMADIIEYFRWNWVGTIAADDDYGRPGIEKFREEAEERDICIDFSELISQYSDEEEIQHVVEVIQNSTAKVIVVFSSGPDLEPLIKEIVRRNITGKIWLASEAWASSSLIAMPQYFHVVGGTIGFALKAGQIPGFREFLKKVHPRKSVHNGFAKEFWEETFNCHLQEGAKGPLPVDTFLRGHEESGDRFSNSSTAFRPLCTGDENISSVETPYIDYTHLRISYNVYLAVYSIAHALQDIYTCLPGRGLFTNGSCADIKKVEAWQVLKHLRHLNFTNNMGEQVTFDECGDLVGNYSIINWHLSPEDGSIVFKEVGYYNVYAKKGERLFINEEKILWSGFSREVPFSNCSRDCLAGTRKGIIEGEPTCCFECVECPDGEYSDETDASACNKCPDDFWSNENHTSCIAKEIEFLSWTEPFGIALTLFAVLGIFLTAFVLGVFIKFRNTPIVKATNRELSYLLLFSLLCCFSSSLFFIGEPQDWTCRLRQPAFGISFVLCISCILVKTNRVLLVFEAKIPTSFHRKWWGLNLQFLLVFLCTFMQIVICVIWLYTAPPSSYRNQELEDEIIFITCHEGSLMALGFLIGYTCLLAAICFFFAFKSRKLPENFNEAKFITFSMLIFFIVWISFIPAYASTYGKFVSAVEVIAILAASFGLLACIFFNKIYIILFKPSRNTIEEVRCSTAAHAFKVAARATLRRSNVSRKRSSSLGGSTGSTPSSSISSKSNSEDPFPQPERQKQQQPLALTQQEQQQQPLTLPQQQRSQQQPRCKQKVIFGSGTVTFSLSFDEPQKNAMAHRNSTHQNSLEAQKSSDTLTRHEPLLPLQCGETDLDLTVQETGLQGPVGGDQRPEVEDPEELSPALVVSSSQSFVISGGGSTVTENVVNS
# T2: CaSR E297K (Homo sapiens, UniProt P41180, E297K)
# T2 construct: expressed in transfected cells; host or cells: HEK293
# T2 sequence (P41180 20-1078 E297K): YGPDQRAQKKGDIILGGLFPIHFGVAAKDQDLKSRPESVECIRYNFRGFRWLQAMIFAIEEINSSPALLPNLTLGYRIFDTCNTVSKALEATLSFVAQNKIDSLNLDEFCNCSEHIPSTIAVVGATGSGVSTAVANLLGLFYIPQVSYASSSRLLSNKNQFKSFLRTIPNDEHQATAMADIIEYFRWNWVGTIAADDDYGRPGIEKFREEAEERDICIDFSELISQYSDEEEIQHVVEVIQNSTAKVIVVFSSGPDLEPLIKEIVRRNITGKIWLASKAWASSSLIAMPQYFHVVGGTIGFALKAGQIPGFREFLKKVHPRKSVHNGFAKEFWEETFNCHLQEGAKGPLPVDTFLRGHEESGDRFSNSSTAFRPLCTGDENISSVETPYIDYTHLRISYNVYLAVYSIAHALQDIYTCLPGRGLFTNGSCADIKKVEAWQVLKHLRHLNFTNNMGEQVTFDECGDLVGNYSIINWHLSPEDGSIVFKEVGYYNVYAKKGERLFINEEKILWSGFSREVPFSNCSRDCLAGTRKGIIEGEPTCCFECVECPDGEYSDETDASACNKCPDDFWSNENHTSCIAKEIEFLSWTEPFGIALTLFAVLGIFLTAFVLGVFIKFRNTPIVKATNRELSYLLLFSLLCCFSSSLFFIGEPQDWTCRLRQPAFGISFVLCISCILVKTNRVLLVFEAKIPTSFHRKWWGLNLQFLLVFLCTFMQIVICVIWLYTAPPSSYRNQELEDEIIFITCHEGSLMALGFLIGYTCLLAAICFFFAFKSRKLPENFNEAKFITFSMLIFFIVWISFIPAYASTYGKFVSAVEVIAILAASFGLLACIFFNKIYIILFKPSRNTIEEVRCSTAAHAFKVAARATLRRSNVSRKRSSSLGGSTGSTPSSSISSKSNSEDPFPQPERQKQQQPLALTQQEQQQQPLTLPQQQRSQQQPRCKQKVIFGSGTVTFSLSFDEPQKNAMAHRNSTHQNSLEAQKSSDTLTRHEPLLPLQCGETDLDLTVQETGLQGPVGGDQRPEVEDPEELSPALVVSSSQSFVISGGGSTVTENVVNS
# Columns and labels:
# CaSR (wildtype) = target: T1, CaSR (wildtype); experiment: Epifluorescence imaging of CaSR mediated ER Ca^2+ dynamics using R-CatchER and Fura-2 in HEK293 cells; type: cell-based; details: for effect on cytosolic and ER Ca^2+ oscillations: Tg 3 μM, 2-APB 100 μM, ionomycin 20 μM with 10 mM Ca^2+; for effect on frequency of ER Ca^2+ oscillations: in the presence of Ca^2+, HEK293 CaSR
# Experimental: (§1) Cell culture and transfection. C2C12, HEK293 and HeLa cells were cultured and maintained in Dulbecco's modified Eagle's medium (DMEM) supplemented with 10% fetal bovine serum (FBS) and high glucose (4.5 g/L) at 37° C. R-CatchER, G-CatchER2, G-CEPIA1er, R-CEPIA1er or R-CatchER with GFP-CaSR (wt and mutations) were transfected into cells using Lipofectamine 3000 (Life Technologies), following the manufacturer's instructions. Seed cells onto sterilized 22 mm×40 mm glass microscope slides in 6 cm dishes until about 70% confluency, the day of transfection. The next day, 2 μg of plasmid were mixed with transfection reagent in the reduced serum media Opti-MEM for 4-6 h at 37° C. The media was then replaced with 3 mL of fresh DMEM and incubated at 37° C. for 48 h.
# (§2) Epifluorescence imaging of class C GPCR mediated ER Ca^2+ dynamics using R-CatchER and Fura-2. HEK293 Cells transfected with R-CatchER and GFP-CaSR (wt and mutations) were incubated with Fura-2 for 30 mins at 37° C. then washed with 2 mL of physiological Ringer buffer (10 mM HEPES, 140 mM NaCl, 5 mM KCl, 1.2 mM MgCl2, 1.8 mM CaCl2) at pH 7.4). The coverslips were mounted on a bath chamber and placed on the stage of a Leica DM6100B inverted microscope with a Hamamatsu cooled EM-CCD camera and illuminated with a Till Polychrome V Xenon lamp. Cells were illuminated at 340 nm, 380 nm and 569 nm, in real-time, as cells were exposed to different concentrations of Ca^2+, cinacalcet, Phe, TNCA, or NPS2143.
# CaSR E297K = target: T2, CaSR E297K; experiment: Epifluorescence imaging of CaSR mediated ER Ca^2+ dynamics using R-CatchER, E297K mutant; type: cell-based; details: E297K mutant with TNCA (500 μM)
# Experimental: as §1
# as §2, with “Cells were illuminated at 340 nm, 380 nm and 569 nm, in real-time, as cells were exposed to different concentrations of Ca^2+, cinacalcet, Phe, TNCA, or NPS2143.” left out
# [1] = In vitro kinetics by stopped flow spectrofluorometer; type: binding; details: stopped-flow, dead time 2.2 ms, 20° C.
# Experimental: In vitro kinetics by stopped flow spectrofluorometer. The kinetics were determined by a Hi-Tech SF-61 stopped-flow spectrofluorometer equipped with the mercury-Xe lamp (10 mm path length, dead time of 2.2 ms) at 20° C. For R-CatchER and its variant or R-CEPIA1er, excitation was at 569 nm and a long-pass 590 nm filter was used. For G-CEPIA1er, a 530 nm long-pass filter was set with excitation at 498 nm, while for MCD1, excitation at 587 nm and a long-pass 600 nm filter were applied. For association kinetics, R-CatchER, R-CatchER variant, MCD1, R-CEPIA1er, and G-CEPIA1er were mixed with the same buffer containing an increasing concentration of Ca^2+. For disassociation kinetics, R-CatchER, R-CatchER variant, MCD1, R-CEPIA1er, and G-CEPIA1er in buffers with concentration of Ca^2+ at Kd, were mixed with 5 mM EGTA or buffer. The raw data were fitted using either single exponential for R-CatchER, R-CatchER variant, and MCD1, or double exponential equations for R-CEPIA1er and G-CEPIA1er.
# [2] = Calcium (Ca^2+) binding assay: fluorescence/absorbance titration of purified protein; details: mCherry based indicators, Ca^2+ induced fluorescence change
# Experimental: Calcium (Ca^2+) binding assay. 10 μM protein samples of mApple, EGFP, and mCherry variants were titrated with different concentrations of Ca^2+. Data were fitted with a 1:1 binding equation. Fluorescence intensities were collected using a Spectrofluorimeter (Photon Technology International, Inc.) and the absorbance values of Ca^2+-free and Ca^2+-loaded forms were determined using a Shimadzu UV-1601 spectrophotome.
# Ca^2+ binding assay. Fluorescence measurements of mApple variants with increasing Ca^2+ concentrations were done in order to obtain the affinity of the sensor for Ca^2+ in vitro. Samples of 10 μM mApple variants with 5 μM EGTA were prepared in triplicate in 1 mL volumes in 10 mM Tris, pH 7.4. The samples were placed in quartz fluorescence cuvettes, and metal ion was titrated into each sample, in a stepwise manner, using 0.1 M and 1 M metal stock solutions. The fluorescence response of the indicator to increasing Ca^2+ concentrations was monitored using a fluorescence spectrophotometer (Photon Technology International, Canada) with the Felix32 fluorescence analysis software. The absorbance spectra before and after titration were obtained using a Shimadzu UV-1601 spectrophotometer.
# [3] = pKa determination of the chromophore; type: physicochemical
# Experimental: pKa determination. To measure the chromophore pKa of mApple, EGFP, and mCherry variants, the proteins were prepared in buffers (sodium acetate buffer for pH 3-5, MES buffer for pH 5-6, HEPES buffer for pH 6.5-8, TRIS buffer for pH 8.5-9) covering a pH range from 3 to 10. All samples were Incubated at 4° C. overnight, then the following day, the absorbance and fluorescence spectra were collected using a Shimadzu UV-1601 spectrophotometer and the Spectrofluorimeter.
Molecule,effect on frequency of ER Ca^2+ oscillations (CaSR (wildtype); R-CatchER),effect on cytosolic and ER Ca^2+ oscillations (CaSR (wildtype)),other results
"NCCOB(c1ccccc1)c1ccccc1 [2-APB, 2-Aminoethoxydiphenyl borate]",–,eliminated; also recorded: elimination,–
CC(C)(Cc1ccc2ccccc2c1)NC[C@@H](O)COc1cccc(Cl)c1C#N [NPS2143],decreased the frequency,–,–
"C/C=C(/C)C(=O)O[C@H]1C(C)=C2[C@H]([C@@H]1OC(=O)CCCCCCC)[C@@](C)(OC(C)=O)C[C@H](OC(=O)CCC)[C@@]1(O)[C@H]2OC(=O)[C@@]1(C)O [Tg, Thapsigargin]",–,eliminated; also recorded: elimination,–
C[C@H](CCC(=O)O)C[C@H](C)C[C@H](C)C(=O)/C=C(\O)[C@H](C)C[C@H](C)C/C=C/[C@@H](C)[C@@H](O)[C@@H](C)[C@@H](O)C[C@@H]1CC[C@@](C)([C@H]2CC[C@@](C)([C@@H](C)O)O2)O1 [ionomycin],–,eliminated; also recorded: abolished,–
"MCD1: mCherry A145E/S147E/N196D/K198D/R216E, best mCherry-based variant, SEQ ID NO: 32 (protein) EEDNMAIIKEFMRFKVHMEGSVNGHEFEIEGEGEGRPYEGTQTAKLKVTKGGPLPFAWDILSPQFMYGSKAYVKHPADIPDYLKLSFPEGFKWERVMNFEDGGVVTVTQDSSLQDGEFIYKVKLRGTNFPSDGPVMQKKTMGWEESEERMYPEDGALKGEIKQRLKLKDGGHYDAEVKTTYKAKKPVQLPGAYNVDIDLDITSHNEDYTIVEQYEEAEGRHSTGGMDELYK",–,–,Ca^2+ association rate kon [1]: ≥ 3e+07 M⁻¹ s⁻¹; Fmax/Fmin [2]: 1.13 ± 0.01; apparent pKa ([3]; 0 mM Ca^2+): 4.31±0.01; apparent pKa ([3]; 10 mM Ca^2+): 4.30±0.01

# Continued, in another order:
effect on frequency of ER Ca^2+ oscillations (CaSR (wildtype); R-CatchER),Molecule,effect on cytosolic and ER Ca^2+ oscillations (CaSR (wildtype)),other results
increased the frequency,C[C@@H](NCCCc1cccc(C(F)(F)F)c1)c1cccc2ccccc12 [Cinacalcet],–,–
increased the frequency,N[C@@H](Cc1ccccc1)C(=O)O [L-Phe],–,"Ca^2+ release from the ER, area under the curve (AUC) (CaSR (wildtype); 5 mM L-Phe alone, R-CatchER): 19.54±1.08; EC50 (CaSR (wildtype); in the presence of L-Phe, read out with R-CatchER, read-out: EC50 of ER Ca^2+ mobilization by extracellular Ca^2+): 2700 ± 100 µM"
increased the frequency,"O=C(O)[C@@H]1Cc2c([nH]c3ccccc23)CN1 [TNCA, L-1,2,3,4-tetrahydronorharman-3-carboxylic acid]",–,Hill coefficient (cooperativity) (CaSR E297K): 3.08±0.40
